Reference: patent US20040059104A1, “Nucleotide mimics and their prodrugs” (priority 2002, published 2004)

Key:
[1] = system: Staphylococcus aureus; test: Antimicrobial assay, minimal inhibitory concentration; assay type: cell-based
Procedure: (§1) To examine the antimicrobial potential of the nucleotide mimics of the present invention an assay was employed that allowed the screening of a large number of compounds simultaneously. The type of bacteria chosen to screen the compounds are organisms associated with human disease and represent major groups of bacteria based on their structure and metabolism. Bacterial cultures of Escherichia coli and Staphylococcus aureus were incubated overnight at 37° C. in a shaker incubator. A lawn of each overnight bacterial culture was made by plating […] of bacteria on agar plates containing Nutrient Broth. Immediately after plating, sterile blank paper discs were put on top of the lawn and a compound was applied to each blank paper disc. Plates were then incubated overnight and examined for the inhibition of bacterial growth the following day. […] The plates were incubated overnight at 37° C. and then examined spectrophotometrically at 600 nm to determine the minimum concentration of each compound that inhibited replication of bacteria as determined by no increase in absorbance at 600 nm.

[2] = system: HIV-1RF; test: Anti-HIV-1 cytoprotection assay in CEM-SS cells; assay type: cell-based; conditions: CEM-SS cells infected with HIV-1RF, MOI approximately 0.01, 6 days, MTS; read-out: CEM-SS IC50 (Anti-HIV Screening)
Procedure: (§2) ollowing paper: Structure-Activity and Cross-Resistance unodeficiency Virus Type 1-Specific ckheit, Jr. et al., Antimicrobial Agents and s were evaluated in CEM-SS cell cultures V-1RF at an MOI of approximately 0.01. At he soluble tetrazolium-based dye MTS viability and quantify compound toxicity of metabolically active cells to yield a soluble analysis of cell viability and compound
Efficacy Evaluation in CEM-SS Cells Anti-HIV-1 Cytoprotection Assay
Cell Preparation—CEM-SS cells were passaged in T-75 flasks prior to use in the antiviral assay. On the day preceding the assay, the cells were split 1:2 to assure they were in an exponential growth phase at the time of infection. Total cell and viability quantification was performed using a hemacytometer and trypan blue exclusion. Cell viability was greater than 95% for the cells to be utilized in the assay. The cells were resuspended at 5×10^4 cells/ml in tissue culture medium and added to the drug-containing microtiter plates in a volume of 50 μl.
Virus Preparation—The virus used for these tests was the lymphocytropic virus strain HIV-1RF. This virus was obtained from the NIH AIDS Research and Reference Reagent Program and was grown in CEM-SS cells for the production of stock virus pools. For each assay, a pre-titered aliquot of virus was removed from the freezer (−80° C.) and allowed to thaw slowly to room temperature in a biological safety cabinet. The virus was resuspended and diluted into tissue culture medium such that the amount of virus added to each well in a volume of 50 μl was the amount determined to give between 85 to 95% cell killing at 6 days post-infection.
(§3) At assay termination, the assay plates were stained with the soluble tetrazolium-based dye MTS (CellTiter Reagent Promega) to determine cell viability and quantify compound toxicity. MTS is metabolized by the mitochondrial enzymes of metabolically active cells to yield a soluble formazan product, allowing the rapid quantitative analysis of cell viability and compound cytotoxicity. […] At termination of the assay, 20 μL of MTS reagent was added per well. The microtiter plates were then incubated 4-6 hrs at 37° C. for the HIV cytoprotection assay; the incubation intervals were chosen based on empirically determined times for optimal dye reduction. Adhesive plate sealers were used in place of the lids, the sealed plate was inverted several times to mix the soluble formazan product and the plate was read spectrophotometrically at 490 nm with a Molecular Devices Vmax plate reader.

[3] = system: Escherichia coli; test: Antimicrobial assay, minimal inhibitory concentration; assay type: cell-based
Procedure: as §1

[4] = target: T1, HIV Reverse Transcriptase (Type B, 66 kDa subunit) (Human immunodeficiency virus type 1 group M subtype B, UniProt P04585); test: HIV Reverse Transcriptase inhibition assays (RNA-directed DNA polymerization, PicoGreen fluorescence); assay type: biochemical; conditions: Table 1; template (homopolymer or heteropolymer RNA) not stated; read-out: Ki, Inhibition of HIV Reverse Transcriptase by Nucleotide Mimics
T1 construct: purified HIV Reverse Transcriptase (Type B, 66 kDa subunit)
Procedure: The assays employed to measure inhibition of HIV Reverse Transcriptase (HIV RT) catalyzed/RNA-directed DNA polymerization are described below. The effectiveness of the compounds of the present invention as inhibitors of HIV RT-catalyzed DNA polymerization was measured in the following assays.
This assay was used to measure the ability of the nucleotide mimics of the present invention to inhibit the enzymatic synthesis of complementary strand DNA from a DNA-primed template of homopolymeric RNA. This assay is a modification of a published procedure (Seville, et al., “Fluorometric Assay for DNA Polymerases and Reverse Transcriptase”, BioTechniques 1996, 21, 664-72).
The compounds were tested at various concentrations up to 500 μM final concentration. DNA polymerase activity was measured in a reaction buffer containing primed-RNA template and dTTP diluted to appropriate concentrations in assay buffer. Nucleotide mimics of the present invention were diluted in buffer and pipetted into the wells of a 96-well plate. The reaction was initiated by addition of enzyme and allowed to proceed at 37° C. for 10 minutes. The reaction was quenched by addition of 5 μL 0.2 M EDTA, pH 8.0.
200 μL of diluted PicoGreen dsDNA Quantitation Reagent (Molecular Probes, Inc, Eugene, Oreg.) was added to each well of a 96-well plate and incubated at room temperature for 5 minutes. Plate wells were read on a microplate fluorometer (Molecular Devices Corp., Sunnyvale, Calif.). The wells were excited at 480 nm and the fluorescence emission intensity (RFU) was measured at 520 nm. The percentage of inhibition was calculated according to the following equation:
% Inhibition=[1−(RFU in test reaction−RFU in blank)/(RFU in control reaction−RFU in blank)]×100.
Each inhibitor was titrated over an appropriate range of concentrations, and inhibition constants were determined using the following equations:
v=Vm[S]/(Km(1+[I]/Ki)+[S])
Certain compounds of the present invention were also tested to determine their ability to inhibit HIV RT-catalyzed DNA polymerization on a heteropolymeric primed-RNA template in the presence of all four natural deoxynucleotide triphosphate (dNTP) substrates. This assay is a modification of a published procedure (Parker et al., “Mechanism of Inhibition of Human Immunodeficiency Virus Type 1 Reverse Transcriptase and Human DNA Polymerases α, β, and γ by the 5′-Triphosphates of Carbovir,3′-Azido-3′-deoxythymidine,2′-3′-Dideoxyguanosine, and 3′-Deoxythymidine”, J. Biol. Chem. 1991, 266 (3), 1754-62).
HIV RT DNA polymerase activity was measured in a reaction buffer containing primed-ribosomal RNA template and dNTPs diluted to appropriate concentrations in assay buffer and pipetted into 1.5 mL microcentrifuge tubes. Nucleotide mimics of the present invention were diluted in buffer and tested at various concentrations up to 5 μM final concentration. The reaction was initiated by addition of enzyme and allowed to proceed at 42° C. for 60 to 90 minutes. The reaction was quenched by addition of 12 μL 0.2 M EDTA, pH 8.0.
50 μL each of reaction was transferred to the well of a 96-well plate (in duplicate). 200 μL of diluted PicoGreen dsDNA Quantitation Reagent was added to each well of a 96-well plate and incubated at room temperature for 5 minutes. Plate wells were read on a microplate fluorometer. The wells were excited at 480 nm and the fluorescence emission intensity (RFU) was measured at 520 nm. The percentage of inhibition and inhibition constants […] were determined for representative compounds as described above.

[5] = system: CEM-SS cells; test: Compound toxicity in CEM-SS cells (MTS staining); assay type: cell-based; conditions: read-out: CEM-SS TC50
Procedure: as §2, §3

[6] = in vitro
Procedure: Typically the total volume used for the experiment was 500 μl. The final concentrations of the reaction components were as follows:
The reacton mixtures were made up and incubated at 37° C. At appropriate times aliquots of 25 μl were removed and added to 65 μl ice-cold methanol. These solutions were our at −20° C. and typically overnight. After incubation samples were inutes at high speed in a microcentrifuge. The supernatant was nd the extract was dried under vacuum in a LabConco Centrivap Concentrator. The dried extracts were resuspended in dH2O and filtered to remove particulate before analysis on reverse phase HPLC.
The reverse phase HPLC columns used for the analysis were either a Phenomenex C18 Aqua column (2×100 mm) or the Phenomenex C18 Aqua column (3×150 mm) used with the appropriate guard column. The HPLC was run at 0.2 ml/min (for the 2×100 mm column) or at 0.5 ml/min (for the 3×150 mm column) with the following buffer system: 5 mM tetrabutylammonium acetate, 50 mM ammonium phosphate, and an acetonitrile gradient running from 5% up to as high as 60%. The amount of remaining parent compound at each time point was used to determine the half-life of the compound. […] Unmodified nucleoside triphosphates were used as positive controls.

[7] = in vitro; remark: listed apart in the source
Procedure: The stability of compounds in cell extracts was examined as follows:
Cell lysis buffer was added to cell pellets and the cells frozen and thawed 3× using dry ice. The lysis buffer (LB) was composed of the following: 50 mM Tris-HCl, pH 7.4 (100 μl/ml 10× stock), 20% glycerol (200 μl/ml), and 0.5% Triton X-100 (5 μl/ml). 100 μl of LB was added to each microfuge tube containing 10^7 frozen CEM cells. After the cells were lysed the extracts were centrifuged at high speed in a microcentrifuge for 5 minutes and the clarified cell extract transferred to a new tube. The cell stability reaction mixtures contained concentrations of buffer, magnesium, nucleotide, and cell extract as shown below:
The reaction mixtures were incubated at 37° C. At each time point, including at time zero, 12.5 μl aliquots were added to 40 μl ice-cold methanol. […] The samples were incubated in methanol for at least 60 minutes and typically overnight at −20° C. prior to further processing. The cell extracts were centrifuged at high speed in refrigerated microcentrifuge for 20 minutes and the supernatant transferred to a new tube. The extract was then dried under vacuum in a LabConco Centrivap Concentrator. The samples were then resuspended in 40 or 50 μl dH2O, filtered to remove any particulate, and analyzed by reverse phase HPLC.
The reverse phase HPLC columns used for the analysis were either a Phenomenex C18 Aqua column (2×100 mm) or the Phenomenex C18 Aqua column (3×150 mm) used with the appropriate guard column. The HPLC flow rate was either 0.2 ml/min (for the 2×100 mm column) or 0.5 ml/min (for the 3×150 mm column) with the following buffer system: 5 mM tetrabutylammonium acetate, 50 mM ammonium phosphate, and an acetonitrile gradient running from 5% up to as high as 60%. The amount of remaining parent compound at each time point was used to determine the half-life of the compound. […] Unmodified nucleoside triphosphates were used as positive controls.

[8] = overnight at 37° C., tested 0-200 μg/ml, NA = Not active
[9] = value in brackets beside the μg/ml value

Molecule	S. aureus MIC [1, 8]	S. aureus MIC [1, 9]	IC50 [2]	E. coli MIC [3, 8]	E. coli MIC [3, 9]	Ki [4]	CC50 [5]	further results
2′-Deoxy-2′,2′-difluorocytidine 5′-β-O—(S-pivaloyl-2-thioethyl) -α,β-methylene-diphosphonate [Compound 75]	15 µg/mL	(26) μM						
3′-Azido-3′-deoxythymidine 5′-α-P-borano-β,γ-difluoromethylene-γ-O-methyltriphosphate [Compound 40]			4 µM	25 to 50 µg/mL	(40-80) uM	0.069 µM	> 200 µM	
3′-Azido-3′-deoxythymidine 5′-α-P-borano-β,γ-diluoromethylene-γ-O-(4-nitrophenyl)triphosphate [Compound 43]			6.43 µM				125 µM	
BP(=O)(OC[C@@H]1O[C@H](n2cc(C)c(=O)[nH]c2=O)C[C@H]1N=[N+]=[N-])OP(=O)(O)C(Cl)(Cl)P(=O)(O)O (single isomer, unassigned; isomer 1) [Compound 26-isomer 1, 3′-Azido-3′-deoxythymidine 5′-α-P-borano-β,γ-(dichloromethylene)triphosphate]				12 µg/mL	(21) uM	0.093 µM		Half-Life, Serum Half-Lives of NTPs and AZT Triphosphate Mimics ([6]; bovine, serum): 45 h; Half-Life, Cell extract Half-Lives of AZT Triphosphate Mimics ([7]; human): >48 h
BP(=O)(OC[C@H]1O[C@@H](n2cc(C)c(=O)[nH]c2=O)C[C@H]1N=[N+]=[N-])OP(=O)(O)C(F)(F)P(=O)(O)Oc1ccccc1 (stereo partly drawn) [Compound 42, 3′-Azido-3′-deoxythymidine 5′-α-P-borano-β,γ-difluoromethylene-γ-O-phenyltriphosphate]			2.54 µM			0.113 µM	32.1 µM	Half-Life, Serum Half-Lives of AZT Triphosphate Mimic Prodrugs ([6]; bovine, serum): >48 h
CC(C)(C)C(=O)SCCOP(=O)(O)CP(=O)(OCCSC(=O)C(C)(C)C)OC[C@H]1O[C@@H](n2ccc(N)nc2=O)C(F)(F)[C@@H]1O (stereo partly drawn) [Compound 76, 2′-deoxy-2′,2′-difluorocytidine 5′-di-α, β-O—(S-pivaloyl-2-thioethyl)-α,β-methylenediphosphonate]	25 µg/mL	(35) μM						Half-Life, Serum Half-Lives of Gemcitibine Diphosphate Mimics and Their Prodrugs ([6]; Table 8, 50% fetal calf serum, 37° C., 500 μM, time points through 48 hours): >48 h; Half-Life, Cell Extract Half-Lives of Gemcitibine 5'-Methylendiphosphonate and its Prodrugs ([7]; Table 11, 50% CEM cell extract, 37° C., 500 μM, time points through 48 hours): 37 h
